# Source: ChEMBL document CHEMBL1201862, “PubChem BioAssay data set” (2004)
# The source made the active and inactive calls.
# Experiments:
# [1] = target: T1, Corticotropin-releasing factor receptor 2/Corticotropin-releasing factor-binding protein (Homo sapiens, UniProt P24387+Q13324); test: activators of CRF receptor 2 with binding protein – uHTS hits, confirmation (AID 602473); format: functional; conditions: read-out: EC50_Mean
# T1 sequence (Q13324 whole entry): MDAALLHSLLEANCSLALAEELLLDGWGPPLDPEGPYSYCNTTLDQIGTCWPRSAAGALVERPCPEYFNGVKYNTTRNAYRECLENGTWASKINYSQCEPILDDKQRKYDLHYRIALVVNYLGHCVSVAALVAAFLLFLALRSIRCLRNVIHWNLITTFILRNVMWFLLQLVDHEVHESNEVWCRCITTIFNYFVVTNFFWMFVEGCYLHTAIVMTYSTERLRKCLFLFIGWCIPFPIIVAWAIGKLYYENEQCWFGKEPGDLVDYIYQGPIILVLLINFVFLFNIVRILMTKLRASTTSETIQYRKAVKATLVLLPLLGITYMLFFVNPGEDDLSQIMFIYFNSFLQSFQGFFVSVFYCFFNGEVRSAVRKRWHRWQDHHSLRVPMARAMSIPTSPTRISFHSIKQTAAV
# T1 sequence (P24387 whole entry): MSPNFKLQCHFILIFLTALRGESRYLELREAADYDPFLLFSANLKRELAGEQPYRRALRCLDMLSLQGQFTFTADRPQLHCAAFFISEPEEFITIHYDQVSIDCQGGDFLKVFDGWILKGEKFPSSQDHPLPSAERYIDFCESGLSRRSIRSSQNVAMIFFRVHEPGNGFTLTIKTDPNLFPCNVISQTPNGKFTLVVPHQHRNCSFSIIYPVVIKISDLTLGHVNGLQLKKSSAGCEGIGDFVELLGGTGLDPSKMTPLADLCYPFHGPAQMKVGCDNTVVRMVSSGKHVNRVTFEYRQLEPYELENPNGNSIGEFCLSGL
# [2] = target: T1, Corticotropin-releasing factor receptor 2/Corticotropin-releasing factor-binding protein; test: Dose Response confirmation of uHTS hits for small molecule antagonists of the CRF-binding protein and CRF-R2 receptor complex.; format: functional; conditions: read-out: IC50_Mean
# [3] = Luminescence Cell-Based Dose Response HTS to Identify Activators of Luciferase Translation or Activity in H4 […] Cells. [Related pubchem assays: 1829 (Project Summary), 1814 (Primary HTS)]; format: functional
# [4] = test system: H4; test: Luminescence Cell-Based Dose Response HTS to Identify Activators of 5'UTR Stem-Loop Driven Prion Protein mRNA Translation in H4 Neuroglioblastoma Cells. [Related pubchem assays: 1829 (Project Summary), 1814 (Primary HTS)]; format: functional; conditions: Homo sapiens
# [5] = cells; format: functional
# [6] = test system: H9c2; test: cells; format: functional, cell-based; conditions: Rattus norvegicus, H9c2, Myocardium;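 also: confirmatory concentration-response retest of ultra-high-throughput screening hits for modulation of myocardial damage; cell death induced by hydrogen peroxide oxidative stress; compound pretreatment for 60 min then peroxide exposure for 2 h; potency is for protecting the cells against peroxide damage rather than for killing them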
# [7] = test system: Streptococcus sp. 'group A'; test: Streptococcus pyogenes SK(-)GAS viability under kanamycin – luminescence, BacTiterGlo, confirmation, counter-screen for streptokinase expression inhibitor project, dose response (AID 1900); format: functional, organism-based
# [8] = target: T2, Streptokinase A (Streptococcus pyogenes serotype M1, UniProt P10520); test: viability-normalized secreted streptokinase activity reduction – plasminogen activation absorbance, OD405, dose response (AID 1914); format: functional, Streptococcus pyogenes M1 GAS;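 also: secreted streptokinase activity via plasminogen activation per viability signal from cell pellet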
# T2 sequence (P10520 whole entry): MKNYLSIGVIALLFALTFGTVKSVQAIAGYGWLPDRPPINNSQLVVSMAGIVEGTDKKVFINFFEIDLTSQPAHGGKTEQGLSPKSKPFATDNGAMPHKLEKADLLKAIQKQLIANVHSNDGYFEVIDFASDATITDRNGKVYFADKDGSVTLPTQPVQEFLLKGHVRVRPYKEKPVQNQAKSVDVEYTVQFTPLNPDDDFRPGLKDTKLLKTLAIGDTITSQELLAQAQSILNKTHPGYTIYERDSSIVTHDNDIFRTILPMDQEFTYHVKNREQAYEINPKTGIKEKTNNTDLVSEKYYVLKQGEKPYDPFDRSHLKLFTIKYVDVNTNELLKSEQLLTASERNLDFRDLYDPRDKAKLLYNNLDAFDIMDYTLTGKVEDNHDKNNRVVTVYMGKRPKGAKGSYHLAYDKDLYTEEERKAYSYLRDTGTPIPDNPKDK
# [9] = test system: Streptococcus; test: GAS UMAA2166 growth inhibition – luminescence, BacTiterGlo, counter-screen for streptokinase expression inhibitor project, dose response (AID 1915); format: functional, organism-based;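 also: potency for reduction of bacterial viability or growth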
# [10] = Luminescence Cell-Based Dose Retest to Confirm Inhibitors of Cancer Stem Cells. [Related pubchem assays (depositor defined):AID2717, AID2721]; format: functional; conditions: Homo sapiens
# [11] = target: T3, Cytochrome P450 1A2 (Homo sapiens, UniProt P05177);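 also: PubChem cytochrome P450 panel assay, CYP1A2 panel member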
# T3 sequence (P05177 whole entry): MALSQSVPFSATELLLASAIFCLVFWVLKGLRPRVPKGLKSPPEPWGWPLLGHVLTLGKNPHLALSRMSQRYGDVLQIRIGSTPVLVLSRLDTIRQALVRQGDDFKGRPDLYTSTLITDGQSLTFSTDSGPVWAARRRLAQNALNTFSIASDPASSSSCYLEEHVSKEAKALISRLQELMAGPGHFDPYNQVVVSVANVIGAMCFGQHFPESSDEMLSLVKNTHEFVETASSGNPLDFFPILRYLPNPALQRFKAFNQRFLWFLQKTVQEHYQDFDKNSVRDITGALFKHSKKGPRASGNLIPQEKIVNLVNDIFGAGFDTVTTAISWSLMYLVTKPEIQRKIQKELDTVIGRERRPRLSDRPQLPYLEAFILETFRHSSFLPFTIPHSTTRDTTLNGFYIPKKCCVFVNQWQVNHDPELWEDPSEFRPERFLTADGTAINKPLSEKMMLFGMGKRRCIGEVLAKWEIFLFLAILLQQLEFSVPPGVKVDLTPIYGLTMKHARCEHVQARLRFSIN
# [12] = target: Cytochrome P450 2C19 (Homo sapiens, UniProt P33261); test: Cytochrome panel assay with activity outcomes. Panel member name: p450-cyp2c19 Compounds with AC50 equal or less than 10 uM are considered active; format: functional
# Cytochrome P450 2C19, sequence (P33261 whole entry): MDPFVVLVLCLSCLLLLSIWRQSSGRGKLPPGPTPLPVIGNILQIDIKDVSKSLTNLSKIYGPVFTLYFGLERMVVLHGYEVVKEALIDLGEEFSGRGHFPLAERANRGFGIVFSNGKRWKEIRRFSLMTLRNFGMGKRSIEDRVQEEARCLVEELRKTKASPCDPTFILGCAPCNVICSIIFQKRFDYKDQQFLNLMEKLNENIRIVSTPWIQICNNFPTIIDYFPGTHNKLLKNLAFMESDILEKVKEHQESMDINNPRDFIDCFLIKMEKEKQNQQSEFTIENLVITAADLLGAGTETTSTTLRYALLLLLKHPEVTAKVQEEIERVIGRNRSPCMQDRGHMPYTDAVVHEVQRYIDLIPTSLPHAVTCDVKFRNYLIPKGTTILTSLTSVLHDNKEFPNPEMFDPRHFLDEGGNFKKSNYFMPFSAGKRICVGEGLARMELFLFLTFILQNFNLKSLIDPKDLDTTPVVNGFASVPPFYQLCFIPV
# [13] = viability of uninfected HEp-2 cells – cell-based, HTS, cytotoxicity control for RSV inhibitor project, dose response (AID 2410); format: functional; conditions: human respiratory syncytial virus
# [14] = target: Cytochrome P450 3A4 (Homo sapiens, UniProt P08684);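 also: CYP3A4 tested as one member of a cytochrome P450 panel screen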
# Cytochrome P450 3A4, sequence (P08684 whole entry): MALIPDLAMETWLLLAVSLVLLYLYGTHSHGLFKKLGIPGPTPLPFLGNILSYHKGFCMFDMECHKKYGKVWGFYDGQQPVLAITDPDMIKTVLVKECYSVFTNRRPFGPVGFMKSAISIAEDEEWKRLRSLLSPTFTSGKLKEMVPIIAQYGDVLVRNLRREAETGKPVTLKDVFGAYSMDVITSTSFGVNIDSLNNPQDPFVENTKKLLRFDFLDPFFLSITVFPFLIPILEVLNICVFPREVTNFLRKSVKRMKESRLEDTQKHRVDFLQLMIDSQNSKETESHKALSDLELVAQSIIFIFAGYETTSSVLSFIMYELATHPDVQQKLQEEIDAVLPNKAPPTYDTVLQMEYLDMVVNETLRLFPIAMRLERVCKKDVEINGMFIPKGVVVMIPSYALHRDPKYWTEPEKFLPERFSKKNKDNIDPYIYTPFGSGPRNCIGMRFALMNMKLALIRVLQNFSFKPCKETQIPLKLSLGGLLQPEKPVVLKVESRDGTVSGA
# [15] = Trypanosoma cruzi growth suppression in host cells – NIH3T3 host cells, beta-gal luminescence, confirmation (AID 2044); format: functional, cell-based;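 also: intracellular parasites grown in NIH/3T3 mouse fibroblasts as host cells; luminescent beta-galactosidase reporter signal from transgenic T. cruzi replicating inside host cells; inhibitors lower the luminescence signal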
# [16] = NIH3T3 cell viability loss – ATP luminescence, mouse fibroblasts, counter-screen, dose response (AID 2010); format: functional, cell-based;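 also: cells exposed to compound for about 90 hours before reading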
# [17] = target: Paired box protein Pax-8 (Homo sapiens, UniProt Q06710); test: PAX8 transcriptional activity inhibition in RMG-I – RMG-I cells, luciferase, cherry-pick, dose response (AID 687027); format: functional, cell-based;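 also: luciferase reporter driven by Pax8 target thyroperoxidase promoter measured by SteadyGlo luminescence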
# Paired box protein Pax-8, sequence (Q06710 whole entry): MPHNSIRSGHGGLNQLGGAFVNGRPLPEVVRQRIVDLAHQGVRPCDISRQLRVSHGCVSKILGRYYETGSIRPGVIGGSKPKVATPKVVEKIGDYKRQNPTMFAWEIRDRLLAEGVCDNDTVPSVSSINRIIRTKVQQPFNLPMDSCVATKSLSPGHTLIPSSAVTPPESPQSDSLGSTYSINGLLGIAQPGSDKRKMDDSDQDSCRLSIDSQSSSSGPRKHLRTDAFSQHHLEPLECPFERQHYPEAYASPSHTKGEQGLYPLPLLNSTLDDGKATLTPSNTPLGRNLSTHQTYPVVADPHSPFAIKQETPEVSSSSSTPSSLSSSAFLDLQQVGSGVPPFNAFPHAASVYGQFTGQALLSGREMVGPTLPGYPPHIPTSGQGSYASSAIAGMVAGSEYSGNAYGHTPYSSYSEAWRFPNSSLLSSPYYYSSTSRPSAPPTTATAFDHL
# [18] = target: Cytochrome P450 2D6 (Homo sapiens, UniProt P10635);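 also: CYP2D6 member of a cytochrome P450 panel assay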
# Cytochrome P450 2D6, sequence (P10635 whole entry): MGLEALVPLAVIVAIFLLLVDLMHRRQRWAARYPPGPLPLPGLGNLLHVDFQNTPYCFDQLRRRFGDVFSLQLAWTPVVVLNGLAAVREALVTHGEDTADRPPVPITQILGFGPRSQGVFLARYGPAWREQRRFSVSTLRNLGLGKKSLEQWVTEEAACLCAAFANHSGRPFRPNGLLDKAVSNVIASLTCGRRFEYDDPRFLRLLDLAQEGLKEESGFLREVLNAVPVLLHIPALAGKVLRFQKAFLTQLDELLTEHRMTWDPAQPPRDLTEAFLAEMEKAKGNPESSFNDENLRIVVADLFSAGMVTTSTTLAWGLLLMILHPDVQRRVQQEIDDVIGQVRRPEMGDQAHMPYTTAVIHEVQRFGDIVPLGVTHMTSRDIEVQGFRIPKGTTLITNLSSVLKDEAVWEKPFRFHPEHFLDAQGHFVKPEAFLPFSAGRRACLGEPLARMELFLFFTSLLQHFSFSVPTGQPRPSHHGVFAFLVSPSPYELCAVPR
smiles,measurement,setting,value
CCCN1CCc2c(sc(NC(=O)c3ccc(S(=O)(=O)N(C)c4ccccc4)cc3)c2C(N)=O)C1,EC50,[1],4.43 µM (active)
Cc1noc(C(F)(F)F)c1C(=O)NNC(=O)c1cccc(C(F)(F)F)c1,IC50,[2],> 47.1 µM (inactive)
same,EC50,[1],> 53 µM (inactive)
O=C(CSc1nc2ccccc2n1CCc1ccccc1)NC1CCS(=O)(=O)C1 (stereo not drawn),IC50,[2],> 47.1 µM (inactive)
same,EC50,[1],> 53 µM (inactive)
CC#CC(=O)N1CCC(C(=O)Nc2ccc(Oc3ccccc3)nc2)CC1,EC50,[3],25.4 µM (active)
same,EC50,[4],73 µM (active)
Cc1ccc(C(=O)OCC(=O)N2CCCCCC2)c(O)c1,IC50,[5],11.1 µM (active)
CCOC(=O)C1CCN(C(=O)COc2cc(C)c(Br)c(C)c2)CC1,IC50,[5],30.2 µM (active)
COC(=O)C1=C(C)N(c2ccc(OC)cc2)C(C)=C(C(=O)OC)C1c1ccccc1,IC50,[2],> 47.1 µM (inactive)
same,EC50,[1],> 53 µM (inactive)
O=C(N/N=C\c1ccccn1)C1COc2cc3ccccc3cc2O1 (stereo not drawn),IC50,[6],> 79 µM (inactive)
COc1ccc(/C=C(\C#N)C(=O)c2c(C)[nH]c3ccccc23)cc1OC,IC50,[6],> 79 µM (inactive)
CCCCNc1c(-c2ccc(OC)c(SC3CCCCC3)c2)nc2cc(C)ccn12,EC50,[7],3.09 µM (active)
same,EC50,[8],9.9 µM (active)
same,EC50,[9],10.1 µM (active)
same,AC50,[10],4.36 µM (active)
O=C(CCN1CCCCC1=O)NC1CCCN(Cc2ccc(Cl)cc2)C1 (stereo not drawn),IC50,[2],> 47.1 µM (inactive)
same,EC50,[1],> 53 µM (inactive)
COc1ccc(C(=O)COC(=O)Cc2nnc(O)c3ccccc23)c(OC)c1,IC50,[6],> 79 µM (inactive)
COc1ccc(CN(C(=O)c2nsc(Cl)c2Cl)C(C(=O)NC2CCCC2)c2ccc(OC)cc2)cc1 (stereo not drawn),EC50,[1],> 53 µM (inactive)
O=C(O)[C@@H]1CCCN1Cc1cc2ccccc2c2ccccc12,AC50,[11],6.31 µM (inconclusive)
N=C(N/N=C\c1ccc(Br)cc1)N/N=C\c1ccc(Br)cc1,EC50,[7],2.39 µM (active)
same,EC50,[9],5.33 µM (active)
same,AC50,[10],3.04 µM (active)
Cc1ccc(-n2nc3c(c2NC(=O)c2ccc(OC(C)C)cc2)C[S+]([O-])C3)cc1 (stereo not drawn),IC50,[2],> 47.1 µM (inactive)
same,EC50,[1],> 53 µM (inactive)
COc1ccc(CNC(=O)c2sc(=S)n(-c3ccc(OC)cc3)c2N)cc1,IC50,[2],> 47.1 µM (inactive)
same,EC50,[1],> 53 µM (inactive)
CC(=O)c1ccc(-c2cnc3c(NC=O)cc(-c4cccc(C(=O)N(C)C)c4)cn23)cc1,IC50,[6],11.2 µM (active)
COC(=O)c1cc(NC(=O)c2cc3ccccc3o2)cc(C(=O)OC)c1,IC50,[6],> 79 µM (inactive)
CN(C(=O)CCCOc1ccc2[nH]c(=O)ccc2c1)C1CCCCC1 [CILOSTAMIDE],AC50,[12],inconclusive
same,AC50,[11],31.6 µM (inconclusive)
COc1ccc(C(=O)N2CCC[C@@]3(CCN(Cc4ccccc4)C3)C2)cc1,AC50,[11],12.6 µM (inconclusive)
c1cc2cc(-c3c(-c4ccc5c(c4)OCO5)noc3-c3ccsc3)ccc2[nH]1,CC50,[13],44.8 µM (active)
same,AC50,[10],1.69 µM (active)
CC(C)(C)OC(=O)NCCCCCNC(=O)c1[nH]cnc1C(=O)Nc1cc(Br)ccc1F,IC50,[6],> 79 µM (inactive)
COCCn1c(=O)c(-c2ccc(Cl)cc2)nc2cnc(N3CCOCC3)nc21,AC50,[11],1 µM (inconclusive)
Oc1nc2cc(F)ccc2c2ccc(F)cc12,IC50,[6],> 79 µM (inactive)
CC(=O)Nc1ccc(-c2csc(NC(=O)CCCc3cccs3)n2)cc1,AC50,[10],7.57 µM (active)
CCN(CCCNC(=O)C1CCN(S(=O)(=O)CC)CC1)c1cccc(C)c1,AC50,[12]; read-out: AC50,39.8 µM (inconclusive)
same,AC50,[11],31.6 µM (inconclusive)
Cc1cccn2c(/C=N/OCc3cccc(F)c3)c(-c3ccc(Cl)cc3)nc12,AC50,[10],4.13 µM (active)
same,IC50,[2],> 47.1 µM (inactive)
same,EC50,[1],> 53 µM (inactive)
same,AC50,[14],14.1 µM (inconclusive)
COC(=O)[C@@H]1[C@@H]2C[C@H]3c4[nH]c5cc(OC)ccc5c4CCN3C[C@@H]2C[C@H](OC(=O)c2cc(OC)c(OC)c(OC)c2)[C@H]1OC,AC50,[11],15.8 µM (inconclusive)
Cc1cccc(-c2noc(C(C)NC(=O)c3ccco3)n2)c1 (stereo not drawn),IC50,[2],> 47.1 µM (inactive)
same,EC50,[1],> 53 µM (inactive)
Cn1cccc1C(=O)N1CCC2(CCCN(c3ccccc3)C2)CC1,AC50,[11],10 µM (inconclusive)
Cc1cnc(CNc2cc(-c3ccoc3)ncn2)cn1,AC50,[11],25.1 µM (inconclusive)
COc1ccc(-c2oc3c4c(cc(OC)c3c(=O)c2CC=C(C)C)OC(C)(C)C=C4)c(OC)c1,EC50,[15],2.08 µM (active)
same,EC50,[16],> 60 µM (not active)
same,AC50,[10],6.2 µM (active)
O=C(c1cc(-c2cccnc2)nc2ccc(Br)cc12)N1CCN(c2ncccn2)CC1,IC50,[6],> 79 µM (inactive)
Cc1ccc(S(=O)(=O)N(C)C[C@H]2Oc3c(NC(=O)Nc4ccc(F)cc4)cccc3C(=O)N([C@@H](C)CO)C[C@H]2C)cc1,AC50,[17],11.5 µM (active)
C/C(=N\OCC(=O)Nc1ccc(F)c(F)c1F)c1cc2ccccc2o1,IC50,[2],> 47.1 µM (inactive)
same,EC50,[1],> 53 µM (inactive)
CC(C)(C)C1COc2ccccc2N1C(=O)c1ccccc1Cl (stereo not drawn),EC50,[1],11.3 µM (active)
O=c1c(Cl)c(NCc2ccc(F)cc2)cnn1C12CC3CC(CC(C3)C1)C2,AC50,[10],0.913 µM (active)
COc1ccccc1C(=O)NCCC(=O)N1CCN(c2ccccc2O)CC1,IC50,[2],> 47.1 µM (inactive)
same,EC50,[1],> 53 µM (inactive)
Cc1ccc(-n2nnnc2C(=Cc2ccc(N(C)C)cc2)c2nnnn2-c2ccc(C)cc2)cc1,AC50,[18],15.8 µM (inconclusive)
same,AC50,[11],12.6 µM (inconclusive)
CC(C)N(C(=O)C[n+]1ccsc1N)c1ccccc1,IC50,[2],> 47.1 µM (inactive)
same,EC50,[1],> 53 µM (inactive)
Cc1nn(-c2ccccc2)c(C)c1/C=N/NC(=O)c1cc(C(C)(C)C)[nH]n1,IC50,[6],12.2 µM (active)
CCN(CC)C(=O)c1ccc(-c2nnc(Nc3ccc(O)cc3)c3ccccc23)cc1,IC50,[6],14.2 µM (active)
